The target of one experiment is SMARCA2 (Homo sapiens, UniProt P51531). Nature of the experiment: HiBiT assay for protein degradation, Hela SMARCA2-HiBiT cells (A series).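 For SMARC A2 Hela HiBit Dmax (%): 24 h compound treatment.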 The experiment is classed as cell-based. Set-up: Hela cells were genetically modified via CRISPR/Cas9 to fuse HiBiT to the carboxy terminus of SMARCA2; host or cells: HeLa (CRISPR/Cas9 HiBiT knock-in). The settings on record: Hela SMARCA2-HiBiT cells, 24 hours treatment; for DC50: read-out: SMARC A2 Hela HiBit DC50; for Dmax: read-out: SMARC A2 Hela HiBit Dmax (%). In short, it runs like this:
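HeLa cells engineered by CRISPR/Cas9 to carry a HiBiT tag fused to the C-terminus of SMARCA2 (Promega CS302365) were grown in DMEM supplemented with FBS and penicillin-streptomycin. After treatment, remaining SMARCA2 protein was quantified with the Nano-Glo® HiBiT Lytic Detection Assay (Promega N3050), and curves were fitted in GraphPad Prism.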

Another experiment has as its target SMARCA4 (Homo sapiens, UniProt P51532). The experiment is described as follows: HiBiT assay for protein degradation, Hela SMARCA4-HiBiT cells (A series). The experiment is classed as cell-based. Also noted: fuse HiBiT to the carboxy terminus of SMARCA2 (Promega CS302365) or SMARCA4 (Promega CS3023225); host or cells: HeLa (CRISPR/Cas9 HiBiT knock-in). Particulars: Hela SMARCA4-HiBiT cells, 24 hours treatment; for DC50: read-out: SMARC A4 Hela HiBit DC50; for Dmax: read-out: SMARC A4 Hela HiBit Dmax. In short, it runs like this:
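HeLa cells engineered by CRISPR/Cas9 to carry a HiBiT tag fused to the C-terminus of SMARCA4 (Promega CS3023225) were grown in DMEM supplemented with FBS and penicillin-streptomycin. After compound exposure, remaining SMARCA4 protein was quantified using the Nano-Glo® HiBiT Lytic Detection Assay (Promega N3050), and curves were fitted in GraphPad Prism.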

Experiment [1] relates to SMARCA4-deficient cancer cell lines. Particulars: pharmacological studies; cited from earlier work.

Chain of SMARCA4 (P51532 whole entry, the tested form may be a part): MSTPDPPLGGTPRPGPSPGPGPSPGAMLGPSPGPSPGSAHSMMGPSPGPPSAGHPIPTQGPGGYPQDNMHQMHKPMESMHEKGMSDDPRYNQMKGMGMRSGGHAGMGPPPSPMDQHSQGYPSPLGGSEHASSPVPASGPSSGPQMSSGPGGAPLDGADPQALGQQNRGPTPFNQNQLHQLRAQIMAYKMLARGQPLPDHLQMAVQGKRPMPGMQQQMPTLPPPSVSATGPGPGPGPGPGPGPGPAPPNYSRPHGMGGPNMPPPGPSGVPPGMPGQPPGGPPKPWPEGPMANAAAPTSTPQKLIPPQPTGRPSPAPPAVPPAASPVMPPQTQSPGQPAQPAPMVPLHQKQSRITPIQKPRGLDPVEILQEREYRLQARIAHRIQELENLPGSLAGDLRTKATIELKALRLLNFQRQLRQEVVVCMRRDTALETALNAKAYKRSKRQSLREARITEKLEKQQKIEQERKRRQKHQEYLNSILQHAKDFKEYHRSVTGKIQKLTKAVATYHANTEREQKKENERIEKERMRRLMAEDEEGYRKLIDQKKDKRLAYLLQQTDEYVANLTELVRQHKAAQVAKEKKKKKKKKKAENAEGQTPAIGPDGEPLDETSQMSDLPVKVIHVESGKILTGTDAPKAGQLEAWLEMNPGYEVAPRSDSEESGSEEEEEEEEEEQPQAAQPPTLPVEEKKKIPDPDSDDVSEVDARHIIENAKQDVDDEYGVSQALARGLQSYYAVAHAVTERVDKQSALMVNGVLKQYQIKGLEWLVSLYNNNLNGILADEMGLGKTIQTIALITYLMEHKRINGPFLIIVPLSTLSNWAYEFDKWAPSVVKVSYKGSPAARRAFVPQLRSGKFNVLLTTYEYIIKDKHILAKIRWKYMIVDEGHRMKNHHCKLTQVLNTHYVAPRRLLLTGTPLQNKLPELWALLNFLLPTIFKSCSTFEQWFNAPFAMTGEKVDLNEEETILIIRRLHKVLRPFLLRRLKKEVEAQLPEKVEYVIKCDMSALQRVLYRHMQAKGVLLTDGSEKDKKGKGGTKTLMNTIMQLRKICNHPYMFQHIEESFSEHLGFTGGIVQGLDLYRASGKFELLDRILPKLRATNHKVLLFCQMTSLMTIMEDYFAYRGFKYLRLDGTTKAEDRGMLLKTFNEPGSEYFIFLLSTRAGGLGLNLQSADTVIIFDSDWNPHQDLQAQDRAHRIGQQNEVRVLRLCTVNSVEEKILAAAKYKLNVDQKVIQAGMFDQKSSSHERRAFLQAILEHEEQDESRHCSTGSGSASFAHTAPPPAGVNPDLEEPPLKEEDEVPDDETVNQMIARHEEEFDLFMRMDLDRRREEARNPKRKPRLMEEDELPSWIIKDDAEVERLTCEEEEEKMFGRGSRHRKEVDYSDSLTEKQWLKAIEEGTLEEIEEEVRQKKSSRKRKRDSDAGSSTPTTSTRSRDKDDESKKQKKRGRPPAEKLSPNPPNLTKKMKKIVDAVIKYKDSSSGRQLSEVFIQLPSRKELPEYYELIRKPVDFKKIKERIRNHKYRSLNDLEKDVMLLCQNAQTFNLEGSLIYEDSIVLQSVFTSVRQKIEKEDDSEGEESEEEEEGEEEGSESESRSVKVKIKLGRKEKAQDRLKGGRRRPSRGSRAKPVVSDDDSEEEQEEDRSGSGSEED
Chain of SMARCA2 (P51531 whole entry, the tested form may be a part): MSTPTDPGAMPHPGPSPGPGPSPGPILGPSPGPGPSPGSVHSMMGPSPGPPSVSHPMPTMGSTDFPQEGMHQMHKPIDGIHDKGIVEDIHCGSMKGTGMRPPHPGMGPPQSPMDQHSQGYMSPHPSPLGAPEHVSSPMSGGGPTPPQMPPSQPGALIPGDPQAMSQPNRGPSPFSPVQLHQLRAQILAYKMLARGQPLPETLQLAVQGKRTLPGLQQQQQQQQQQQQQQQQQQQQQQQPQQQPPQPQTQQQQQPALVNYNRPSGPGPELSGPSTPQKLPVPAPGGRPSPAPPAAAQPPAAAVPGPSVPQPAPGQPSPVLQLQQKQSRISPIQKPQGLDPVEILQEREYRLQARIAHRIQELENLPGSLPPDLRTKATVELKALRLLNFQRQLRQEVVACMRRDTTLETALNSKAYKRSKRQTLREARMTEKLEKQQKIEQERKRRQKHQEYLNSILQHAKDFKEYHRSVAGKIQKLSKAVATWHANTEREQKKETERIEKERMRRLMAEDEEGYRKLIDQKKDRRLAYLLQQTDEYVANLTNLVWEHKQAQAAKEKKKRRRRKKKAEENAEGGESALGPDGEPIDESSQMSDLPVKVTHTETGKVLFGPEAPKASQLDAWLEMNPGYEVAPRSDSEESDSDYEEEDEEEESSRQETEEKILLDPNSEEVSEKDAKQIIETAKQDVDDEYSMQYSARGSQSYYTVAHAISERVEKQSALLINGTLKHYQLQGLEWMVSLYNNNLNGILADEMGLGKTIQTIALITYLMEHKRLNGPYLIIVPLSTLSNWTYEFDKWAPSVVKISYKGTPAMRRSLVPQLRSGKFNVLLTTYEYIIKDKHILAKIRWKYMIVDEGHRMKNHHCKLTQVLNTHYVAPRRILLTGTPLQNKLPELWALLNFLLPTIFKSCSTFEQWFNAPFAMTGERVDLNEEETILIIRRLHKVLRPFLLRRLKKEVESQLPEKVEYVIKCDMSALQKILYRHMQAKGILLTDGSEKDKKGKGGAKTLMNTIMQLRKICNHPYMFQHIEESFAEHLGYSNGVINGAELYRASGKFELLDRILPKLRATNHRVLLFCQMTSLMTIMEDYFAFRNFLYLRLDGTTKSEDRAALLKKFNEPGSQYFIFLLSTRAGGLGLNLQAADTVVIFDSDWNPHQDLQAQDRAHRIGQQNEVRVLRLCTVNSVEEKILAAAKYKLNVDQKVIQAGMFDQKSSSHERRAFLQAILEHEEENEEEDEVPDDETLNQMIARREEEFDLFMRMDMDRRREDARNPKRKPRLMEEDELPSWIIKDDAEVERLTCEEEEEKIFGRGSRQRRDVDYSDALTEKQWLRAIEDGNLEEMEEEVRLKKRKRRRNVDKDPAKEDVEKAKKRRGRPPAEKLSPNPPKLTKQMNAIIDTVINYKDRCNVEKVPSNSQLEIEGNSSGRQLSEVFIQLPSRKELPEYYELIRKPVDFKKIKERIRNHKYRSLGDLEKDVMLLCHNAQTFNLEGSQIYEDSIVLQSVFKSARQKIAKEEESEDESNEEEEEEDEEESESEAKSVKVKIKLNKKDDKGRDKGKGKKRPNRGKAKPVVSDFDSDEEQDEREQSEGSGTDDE

On to `CC(C)(C)[C@@H](C(=O)N1C[C@H](O)C[C@H]1C(=O)N[C@@H](CN1CCOCC1)c1ccc(-c2scnc2C(F)(F)F)cc1)n1cc([C@H]2CC[C@H](CN3CCC(c4ccc5c(c4)-n4c(nc(=O)c6c(Cl)cccc64)C54CCCCC4)CC3)CC2)nn1` [Compound A167, (2S,4R)-1-((S)-2-(4-((1r,4S)-4-((4-(4′-chloro-5′-oxo-5′H-spiro[cyclohexane-1,7′-indolo[1,2-a]quinazolin]-10′-yl)piperidin-1-yl)methyl)cyclohexyl)-1H-1,2,3-triazol-1-yl)-3,3-dimethylbutanoyl)-4-hydroxy-N—((R)-2-morpholino-1-(4-(4-(trifluoromethyl)thiazol-5-yl)phenyl)ethyl)pyrrolidine-2-carboxamide], for which, at SMARCA2, the DC50 is > 1000 nM and the Dmax was < 50%. In addition, at SMARCA4, the DC50 is > 1000 nM and the Dmax was < 50%.

Regarding `CC(C)(C)[C@@H](C(=O)N1C[C@H](O)C[C@H]1C(=O)N[C@@H](CN1CCOCC1)c1ccc(-c2cccnc2)cc1)n1cc([C@H]2CC[C@H](CN3CCC(c4ccc5c(c4)-n4c(nc(=O)c6c(Cl)cccc64)C54CCCCC4)CC3)CC2)nn1` [Compound A171, (2S,4R)-1-((S)-2-(4-((1r,4S)-4-((4-(4′-chloro-5′-oxo-5′H-spiro[cyclohexane-1,7′-indolo[1,2-a]quinazolin]-10′-yl)piperidin-1-yl)methyl)cyclohexyl)-1H-1,2,3-triazol-1-yl)-3,3-dimethylbutanoyl)-4-hydroxy-N—((R)-2-morpholino-1-(4-(pyridin-3-yl)phenyl)ethyl)pyrrolidine-2-carboxamide], the half-maximal degradation concentration (DC50) at SMARCA2 is < 10 nM; at SMARCA4 it was 100 to 1000 nM. Also, the Dmax at SMARCA2 is > 90%; at SMARCA4 it was 50 to 69%.

Take `CC(C)(C)[C@@H](C(=O)N1C[C@H](O)C[C@H]1C(=O)N[C@@H](CN1CCOCC1)c1ccc(-c2ccncc2)cc1)n1cc([C@H]2CC[C@H](CN3CCC(c4ccc5c(c4)-n4c(nc(=O)c6c(Cl)cccc64)C54CCCCC4)CC3)CC2)nn1` [Compound A172, (2S,4R)-1-((S)-2-(4-((1r,4S)-4-((4-(4′-chloro-5′-oxo-5′H-spiro[cyclohexane-1,7′-indolo[1,2-a]quinazolin]-10′-yl)piperidin-1-yl)methyl)cyclohexyl)-1H-1,2,3-triazol-1-yl)-3,3-dimethylbutanoyl)-4-hydroxy-N—((R)-2-morpholino-1-(4-(pyridin-4-yl)phenyl)ethyl)pyrrolidine-2-carboxamide]: on SMARCA2, the DC50 is < 10 nM and the greatest degradation seen (Dmax) was > 90%. Further, on SMARCA4, the 50% degradation concentration (DC50) was > 1000 nM and the Dmax is < 50%.

For `CC(C)(C)[C@@H](C(=O)N1C[C@H](O)C[C@H]1C(=O)N[C@@H](CN1CCOCC1)c1ccc(-c2ccccn2)cc1)n1cc([C@H]2CC[C@H](CN3CCC(c4ccc5c(c4)-n4c(nc(=O)c6c(Cl)cccc64)C54CCCCC4)CC3)CC2)nn1` [Compound A173, (2S,4R)-1-((S)-2-(4-((1r,4S)-4-((4-(4′-chloro-5′-oxo-5′H-spiro[cyclohexane-1,7′-indolo[1,2-a]quinazolin]-10′-yl)piperidin-1-yl)methyl)cyclohexyl)-1H-1,2,3-triazol-1-yl)-3,3-dimethylbutanoyl)-4-hydroxy-N—((R)-2-morpholino-1-(4-(pyridin-2-yl)phenyl)ethyl)pyrrolidine-2-carboxamide], at SMARCA2, the DC50 is < 10 nM and the greatest degradation seen (Dmax) was > 90%. At SMARCA4, the DC50 is > 1000 nM and the Dmax is < 50%.

Turning to `Cc1ncccc1-c1ccc([C@H](CN2CCOCC2)NC(=O)[C@@H]2C[C@@H](O)CN2C(=O)[C@@H](n2cc([C@H]3CC[C@H](CN4CCC(c5ccc6c(c5)-n5c(nc(=O)c7c(Cl)cccc75)C65CCCCC5)CC4)CC3)nn2)C(C)(C)C)cc1` [Compound A174, (2S,4R)-1-((S)-2-(4-((1r,4S)-4-((4-(4′-chloro-5′-oxo-5′H-spiro[cyclohexane-1,7′-indolo[1,2-a]quinazolin]-10′-yl)piperidin-1-yl)methyl)cyclohexyl)-1H-1,2,3-triazol-1-yl)-3,3-dimethylbutanoyl)-4-hydroxy-N—((R)-1-(4-(2-methylpyridin-3-yl)phenyl)-2-morpholinoethyl)pyrrolidine-2-carboxamide], the half-maximal degradation concentration (DC50) was < 10 nM on SMARCA2 and > 1000 nM at SMARCA4. The Dmax was > 90% on SMARCA2 and < 50% at SMARCA4.

Take `Cc1ccncc1-c1ccc([C@H](CN2CCOCC2)NC(=O)[C@@H]2C[C@@H](O)CN2C(=O)[C@@H](n2cc([C@H]3CC[C@H](CN4CCC(c5ccc6c(c5)-n5c(nc(=O)c7c(Cl)cccc75)C65CCCCC5)CC4)CC3)nn2)C(C)(C)C)cc1` [Compound A175]: at SMARCA2, the DC50 is < 10 nM and the greatest degradation seen (Dmax) is > 90%. On SMARCA4, the 50% degradation concentration (DC50) is > 1000 nM and the Dmax was < 50%.

With `O=C(/C=C/N1C[C@H]2C[C@@H]1CN2c1ccccn1)c1ccccc1O` [PFI-3], the antiproliferative phenotype result in experiment [1] is on record as “fail to display an antiproliferative phenotype”.

Values taken from patent US20260092071A1, “COMPOUNDS AND COMPOSITIONS AS SMARCA2/4 DEGRADERS AND USES THEREOF” (REGENTS OF THE UNIVERSITY OF MICHIGAN, priority 2022, published 2026).
